Laboratory results as given in patent US20050282865A1, “Neurotrophic factor production promoter” (FUJISAWA PHARMACEUTICAL CO., LTD., priority 2002, published 2005).

Columns and labels:
GDNF [1] = test: GDNF expression in the cerebral cortex of mouse model of Parkinson's disease (EIA); assay type: in vivo; conditions: 6-OHDA mouse model
Experimental: (§1) The removed cerebral cortex and striatum were weighed, a homogenizing buffer (0.1M Tris-phosphate buffer (pH 7.4) containing 1M sodium hydrochloride, 2% BSA, 2 mM EDTA, 0.2% sodium azide) supplemented with aprotinin (80 TIU/L) was added in an amount of 19-fold volume of the weight, and the mixture was sonicated 30 times. After centrifugation (100,000 g×30 min) at 4° C., the supernatant was separated and the same amount of chloroform was added. The mixture was thoroughly stirred and centrifuged (20,000 g×10 min). The supernatant was separated and used as a sample for EIA (cryopreserved at −20° C. until use).
(§2) The concentration of neurotrophic factor in each sample was measured using EIA according to the method of Furukawa et al. (Journal of Neurochemistry), 40, 734-744 (1983)} in the case of NGF, and using EIA according to the method of Nitta et al. {pp. 463-467 of “Mapping the progress of Alzheimer's and Parkinson's Disease” (2002) edited by Mizuno et al.}, in the case of GDNF. The obtained values were multiplied by 20 to give a neurotrophic factor content of each brain region.
(§3) 5-week-old male ddy mice (Japan LLC, Inc.) were divided into the following four groups (9 mice per group) and subjected to a test. […]

[2] = Observation of normal mice after 7 consecutive days of intraperitoneal APA; assay type: in vivo, mouse; conditions: normal ddy mice, APA i.p. once a day for 7 days (0.75 or 7.5 mg/kg)
Experimental: (§4) 5-week-old male ddy mice (Japan LLC, Inc.) were divided into the following three groups (9 mice per group) and subjected to a test. • Group 1 (Control) Phosphate buffered saline (PBS) was intraperitoneally administered to the mice once a day for 7 days. • Group 2 APA (0.75 mg/kg) dissolved in PBS was intraperitoneally administered to the mice once a day for 7 days. • Group 3 APA (7.5 mg/kg) dissolved in PBS was intraperitoneally administered to the mice once a day for 7 days.

[3] = test system: rats with injured spinal cord; test: Walking ability of rats with spinal injury (BBB scale); assay type: in vivo, rat; conditions: spinal-injured Wistar rats, APA 0.75 mg/kg i.p. once a day
Experimental: 7-week-old male Wistar rats (Japan SMC, Inc.) were divided into the following three groups (12-17 rats per group) and subjected to a test. Pentobarbital sodium (DAINIPPON Pharmaceutical Co., Ltd., 35 mg/kg) was intraperitoneally injected to the rats, median incision was applied to the back, and paraspinal muscle was bluntly detached. After laminectomy of the 12th thoracic vertebra, the left spinal cord was cut at the same position with a sharp cutting tool. After 5 hr from the cutting, the rats confirmed to have anesthetic disorder in the left hind paw were subjected to the following test. • Group 1 PBS was intraperitoneally administered to rats with uninjured spinal cord (sutured without cutting the spinal cord after laminectomy of the 12th thoracic vertebra). • Group 2 PBS was intraperitoneally administered to rats with injured spinal cord. • Group 3 APA (0.75 mg/kg) dissolved in PBS was intraperitoneally administered to rats with injured spinal cord.
In every group, the administration was performed once a day for 20 days from the day of spinal injury. Evaluation method of walking ability of rats with injured spinal cord: The rats were placed in a box (length 1 m×width 1 m×height 30 cm) painted in gray, allowed to search freely, and evaluated in 21 levels according to 21-Point Basso-Besttie-Bresnahan Locomotor Rating Scale (BBB scale).

NGF [4] = test: NGF expression in the cerebral cortex of mouse model of Parkinson's disease (EIA); assay type: in vivo; conditions: 6-OHDA mouse model
Experimental: as §1, §2, §3

dopaminergic nerve = test: Functional evaluation of dopaminergic nerve: methamphetamine-induced one side cycling movement in 6-OHDA mouse model of Parkinson's disease; assay type: in vivo; conditions: 6-OHDA striatum destruction, counted 10-20 min after methamphetamine 10 mg/kg, no-APA group 86.0±14.1
Experimental: 5-week-old male ddy mice (Japan LLC, Inc.) were divided into the following four groups (9 mice per group) and subjected to a test. Under pentobarbital anesthesia and without craniotomy, a needle of a microsyringe was punctured through the head skin into the striatum of the right brain, and 1 μL of 6-hydroxydopamine (6-OHDA, Sigma Co., 11.5 μg/μL) dissolved in physiological saline containing 0.05% ascorbic acid was injected. • Group 1 (Control) Physiological saline containing only ascorbic acid was injected, whereby the striatum was not damaged. […]
The mouse models of Parkinson's disease of each of the above-mentioned groups were allowed to search freely in a transparent cylindrical container (glass, diameter 9 cm-height 12 cm) for 10 min, methamphetamine (DAINIPPON Pharmaceutical Co., Ltd., 10 mg/kg) was intraperitoneally administered, and the number of cycling in 10-20 min after administration was counted. […]

NGF [5] = test: NGF expression in the brain of normal mouse (EIA); assay type: in vivo; conditions: normal mice, 24 hr after final administration, vs control
Experimental: as §4
(§5) In every group, the mice were decapitated at 24 hr after the final administration and the cerebral cortex and striatum thereof were removed.
(§6) The removed cerebral cortex and striatum were weighed, a homogenizing buffer (0.1M Tris-phosphate buffer (pH 7.4) containing 1M sodium hydrochloride, 2% BSA, 2 mM EDTA, 0.2% sodium azide) supplemented with aprotinin (80 TIU/L) was added in an amount of 19-fold volume of the weight, and the mixture was sonicated 30 times. […]
(§7) The concentration of neurotrophic factor in each sample was measured using EIA according to the method of Furukawa et al. (Journal of Neurochemistry), 40, 734-744 (1983)} in the case of NGF, and using EIA according to the method of Nitta et al. {pp. 463-467 of “Mapping the progress of Alzheimer's and Parkinson's Disease” (2002) edited by Mizuno et al.}, in the case of GDNF. […]

GDNF [6] = test: GDNF expression in the brain of normal mouse (EIA); assay type: in vivo; conditions: normal mice, 24 hr after final administration
Experimental: as §4, §5, §6, §7

[7] = APA 0.75 mg/kg i.p. once a day for 7 days
[8] = APA 7.5 mg/kg i.p. once a day for 7 days

CC(=O)N1CCCC[C@H]1C(=O)O [APA, N-acetyl-L-pipecolic acid]
GDNF expression amount in the cerebral cortex, increase (GDNF [1]; [7]): 74.9%
GDNF expression amount in the cerebral cortex, increase (GDNF [1]; [8]): 232.4%
abnormal behavior, alopecia or decrease of body weight as compared to control mice [2]: did not show abnormal behavior, alopecia or decrease of body weight
level of walking ability (BBB scale) ([3]; at day 23, injury-only group plateaued at score 15): recovery to almost the same level as before injury
effect of APA administration on walking ability (BBB scale) ([3]; first 2 days): not observed
level of walking ability (BBB scale) ([3]; from day 3): showed improvement from day 3
NGF expression amount in the cerebral cortex, increase (NGF [4]; [7]): 11.2%
NGF expression amount in the cerebral cortex, increase (NGF [4]; [8]): 30.7%
one side cycling movement (dopaminergic nerve; APA 0.75 mg/kg i.p. for 7 days): 40.9±17.3 times
one side cycling movement (dopaminergic nerve; APA 7.5 mg/kg i.p. for 7 days): 47.1±13.1 times
NGF expression amount in the cerebral cortex (NGF [5]; APA 0.75 and 7.5 mg/kg i.p. once a day for 7 days): tended to increase in a dose-dependent manner
NGF expression amount in the striatum (NGF [5]; APA 0.75 or 7.5 mg/kg i.p. once a day for 7 days): did not show remarkable difference from the control
GDNF expression amount in the striatum, increase as compared to the control (GDNF [6]; [7]): 66.0%
GDNF expression amount in the cerebral cortex (GDNF [6]; APA 0.75 or 7.5 mg/kg i.p. once a day for 7 days, vs control): no remarkable difference
